# Experimental data: article PMC2676941 (The Journal of membrane biology, 2008)
# What was measured:
# [1] = system: plasmodial surface anion channel (PSAC); format: cell-based, Plasmodium falciparum; details: for concentration to inhibit proline transport versus hydroxyproline transport: data not shown
# [2] = system: plasmodial surface anion channel (PSAC); details: compared with sorbitol and alanine transport; ref Lisk et al. 2007; cited from earlier work
smiles,measurement,setting,value
O=C1CN(/N=C/c2ccc(-c3ccc([N+](=O)[O-])cc3)o2)C(O)=N1 [Dantrolene],concentration to inhibit proline transport versus hydroxyproline transport,[1],required higher concentrations
O=C(O)c1cc([N+](=O)[O-])ccc1NCCCc1ccccc1 [NPPB],hydroxyproline uptake (osmotic lysis over 90 min),[1]; 10 μM NPPB,abolished
same,proline-mediated lysis,[1]; 10 μM NPPB,slowed but not abolished
same,higher inhibitor concentration required to comparably reduce proline uptake,[1]; relative to the concentration that abolishes hydroxyproline uptake,10 fold
COc1ccc(Cl)cc1C(=O)NCCc1ccc(S(=O)(=O)NC(=O)NC2CCCCC2)cc1 [glybenclamide],concentration to inhibit proline transport versus hydroxyproline transport,[1],required higher concentrations
O=C(CCc1ccc(O)cc1)c1c(O)cc(O)cc1O[C@@H]1O[C@H](CO)[C@@H](O)[C@H](O)[C@H]1O [phloridzin],inhibition of PhTMA-Cl and isoleucine transport,[2],less effectively inhibited
